Like-named read-outs stand apart in the source and are kept apart here.
Legend:
[1] = tested on: chronic Hepatitis B virus (HBV)-infection; details: cited from earlier work
[2] = tested on: HBV-transgenic mice (Strain HBV1.3.32); details: mouse, in vivo
[3] = tested on: HBV-transgenic mice (Strain HBV1.3.32); format: in vivo, mouse
HBVtg mice = details: mouse, in vivo
[4] = middle and high antigenemic HBVtg mice, day 34

Molecule | patients in whom therapy is curative [1] | adjuvant efficacy for therapeutic protein prime-MVA boost vaccination [2] | difference in magnitude of HBV-specific CD8+ T cell responses between c-di-AMP and CpG/PCEP regimens [2] | efficacy as adjuvant for therapeutic protein prime-MVA boost vaccination [2] | efficacy in i.m. versus s.c./i.p. application routes [2] | titers of anti-HBc antibodies, c-di-AMP compared to CpG/PCEP regimen ([3]; day 34, p<0.05) | impact on serum HBeAg levels ([3]; high antigenemic HBVtg mice, HBsAg+HBcAg prime twice, MVA-S/core boost day 28, day 34) | HBV replication, detected indirectly by HBeAg levels ([3]; i.m. route) | HBsAg to anti-HBs seroconversion [3, 4] | anti-HBc responses [3, 4] | HBV replication, detected indirectly by HBeAg levels ([3]; s.c./i.p. routes) | liver damage / increase in ALT (HBVtg mice)
Interferon α | 15-20% | – | – | – | – | – | – | – | – | – | – | –
Nc1ncnc2c1ncn2[C@@H]1O[C@@H]2COP(=O)(O)O[C@H]3[C@@H](O)[C@H](n4cnc5c(N)ncnc54)O[C@@H]3COP(=O)(O)O[C@H]2[C@H]1O [c-di-AMP, bis-(3′,5′)-cyclic dimeric adenosine monophosphate] | – | potent adjuvant | no statistically significant difference | very potent adjuvant | equally effective | significantly higher titers | Neither c-di-AMP nor CpG/PCEP immunization protocol had an impact | lower HBV replication | HBsAg to anti-HBs seroconversion in all examined HBVtg mice | significant anti-HBc responses | lower HBV replication | mild T-cell-induced liver damage
